Experiments:
2008 = assay: Antiproliferative activity against human 2008 ovarian carcinoma cells by MTS assay; type: functional
MDA-MB-231 = assay: Antiproliferative activity against human MDA-MB-231 breast carcinoma cells by MTS assay; type: functional
HT-29 = assay: Antiproliferative activity against human HT29 colon carcinoma cells by MTS assay; type: functional
PC-3 = assay: Antiproliferative activity against human PC3 prostate carcinoma cells by MTS assay; type: functional
L1210 = assay: Antiproliferative activity against mouse L1210 leukemia cell line by MTS assay; type: functional
[1] = target: Cytoplasmic dynein 1 heavy chain 1 (Rattus norvegicus, UniProt P38650); assay: Inhibition of MT-stimulated ATPase activity of rat cytoplasmic dynein heavy chain motor domain
Chain of Cytoplasmic dynein 1 heavy chain 1 (P38650 whole entry, the tested form may be a part): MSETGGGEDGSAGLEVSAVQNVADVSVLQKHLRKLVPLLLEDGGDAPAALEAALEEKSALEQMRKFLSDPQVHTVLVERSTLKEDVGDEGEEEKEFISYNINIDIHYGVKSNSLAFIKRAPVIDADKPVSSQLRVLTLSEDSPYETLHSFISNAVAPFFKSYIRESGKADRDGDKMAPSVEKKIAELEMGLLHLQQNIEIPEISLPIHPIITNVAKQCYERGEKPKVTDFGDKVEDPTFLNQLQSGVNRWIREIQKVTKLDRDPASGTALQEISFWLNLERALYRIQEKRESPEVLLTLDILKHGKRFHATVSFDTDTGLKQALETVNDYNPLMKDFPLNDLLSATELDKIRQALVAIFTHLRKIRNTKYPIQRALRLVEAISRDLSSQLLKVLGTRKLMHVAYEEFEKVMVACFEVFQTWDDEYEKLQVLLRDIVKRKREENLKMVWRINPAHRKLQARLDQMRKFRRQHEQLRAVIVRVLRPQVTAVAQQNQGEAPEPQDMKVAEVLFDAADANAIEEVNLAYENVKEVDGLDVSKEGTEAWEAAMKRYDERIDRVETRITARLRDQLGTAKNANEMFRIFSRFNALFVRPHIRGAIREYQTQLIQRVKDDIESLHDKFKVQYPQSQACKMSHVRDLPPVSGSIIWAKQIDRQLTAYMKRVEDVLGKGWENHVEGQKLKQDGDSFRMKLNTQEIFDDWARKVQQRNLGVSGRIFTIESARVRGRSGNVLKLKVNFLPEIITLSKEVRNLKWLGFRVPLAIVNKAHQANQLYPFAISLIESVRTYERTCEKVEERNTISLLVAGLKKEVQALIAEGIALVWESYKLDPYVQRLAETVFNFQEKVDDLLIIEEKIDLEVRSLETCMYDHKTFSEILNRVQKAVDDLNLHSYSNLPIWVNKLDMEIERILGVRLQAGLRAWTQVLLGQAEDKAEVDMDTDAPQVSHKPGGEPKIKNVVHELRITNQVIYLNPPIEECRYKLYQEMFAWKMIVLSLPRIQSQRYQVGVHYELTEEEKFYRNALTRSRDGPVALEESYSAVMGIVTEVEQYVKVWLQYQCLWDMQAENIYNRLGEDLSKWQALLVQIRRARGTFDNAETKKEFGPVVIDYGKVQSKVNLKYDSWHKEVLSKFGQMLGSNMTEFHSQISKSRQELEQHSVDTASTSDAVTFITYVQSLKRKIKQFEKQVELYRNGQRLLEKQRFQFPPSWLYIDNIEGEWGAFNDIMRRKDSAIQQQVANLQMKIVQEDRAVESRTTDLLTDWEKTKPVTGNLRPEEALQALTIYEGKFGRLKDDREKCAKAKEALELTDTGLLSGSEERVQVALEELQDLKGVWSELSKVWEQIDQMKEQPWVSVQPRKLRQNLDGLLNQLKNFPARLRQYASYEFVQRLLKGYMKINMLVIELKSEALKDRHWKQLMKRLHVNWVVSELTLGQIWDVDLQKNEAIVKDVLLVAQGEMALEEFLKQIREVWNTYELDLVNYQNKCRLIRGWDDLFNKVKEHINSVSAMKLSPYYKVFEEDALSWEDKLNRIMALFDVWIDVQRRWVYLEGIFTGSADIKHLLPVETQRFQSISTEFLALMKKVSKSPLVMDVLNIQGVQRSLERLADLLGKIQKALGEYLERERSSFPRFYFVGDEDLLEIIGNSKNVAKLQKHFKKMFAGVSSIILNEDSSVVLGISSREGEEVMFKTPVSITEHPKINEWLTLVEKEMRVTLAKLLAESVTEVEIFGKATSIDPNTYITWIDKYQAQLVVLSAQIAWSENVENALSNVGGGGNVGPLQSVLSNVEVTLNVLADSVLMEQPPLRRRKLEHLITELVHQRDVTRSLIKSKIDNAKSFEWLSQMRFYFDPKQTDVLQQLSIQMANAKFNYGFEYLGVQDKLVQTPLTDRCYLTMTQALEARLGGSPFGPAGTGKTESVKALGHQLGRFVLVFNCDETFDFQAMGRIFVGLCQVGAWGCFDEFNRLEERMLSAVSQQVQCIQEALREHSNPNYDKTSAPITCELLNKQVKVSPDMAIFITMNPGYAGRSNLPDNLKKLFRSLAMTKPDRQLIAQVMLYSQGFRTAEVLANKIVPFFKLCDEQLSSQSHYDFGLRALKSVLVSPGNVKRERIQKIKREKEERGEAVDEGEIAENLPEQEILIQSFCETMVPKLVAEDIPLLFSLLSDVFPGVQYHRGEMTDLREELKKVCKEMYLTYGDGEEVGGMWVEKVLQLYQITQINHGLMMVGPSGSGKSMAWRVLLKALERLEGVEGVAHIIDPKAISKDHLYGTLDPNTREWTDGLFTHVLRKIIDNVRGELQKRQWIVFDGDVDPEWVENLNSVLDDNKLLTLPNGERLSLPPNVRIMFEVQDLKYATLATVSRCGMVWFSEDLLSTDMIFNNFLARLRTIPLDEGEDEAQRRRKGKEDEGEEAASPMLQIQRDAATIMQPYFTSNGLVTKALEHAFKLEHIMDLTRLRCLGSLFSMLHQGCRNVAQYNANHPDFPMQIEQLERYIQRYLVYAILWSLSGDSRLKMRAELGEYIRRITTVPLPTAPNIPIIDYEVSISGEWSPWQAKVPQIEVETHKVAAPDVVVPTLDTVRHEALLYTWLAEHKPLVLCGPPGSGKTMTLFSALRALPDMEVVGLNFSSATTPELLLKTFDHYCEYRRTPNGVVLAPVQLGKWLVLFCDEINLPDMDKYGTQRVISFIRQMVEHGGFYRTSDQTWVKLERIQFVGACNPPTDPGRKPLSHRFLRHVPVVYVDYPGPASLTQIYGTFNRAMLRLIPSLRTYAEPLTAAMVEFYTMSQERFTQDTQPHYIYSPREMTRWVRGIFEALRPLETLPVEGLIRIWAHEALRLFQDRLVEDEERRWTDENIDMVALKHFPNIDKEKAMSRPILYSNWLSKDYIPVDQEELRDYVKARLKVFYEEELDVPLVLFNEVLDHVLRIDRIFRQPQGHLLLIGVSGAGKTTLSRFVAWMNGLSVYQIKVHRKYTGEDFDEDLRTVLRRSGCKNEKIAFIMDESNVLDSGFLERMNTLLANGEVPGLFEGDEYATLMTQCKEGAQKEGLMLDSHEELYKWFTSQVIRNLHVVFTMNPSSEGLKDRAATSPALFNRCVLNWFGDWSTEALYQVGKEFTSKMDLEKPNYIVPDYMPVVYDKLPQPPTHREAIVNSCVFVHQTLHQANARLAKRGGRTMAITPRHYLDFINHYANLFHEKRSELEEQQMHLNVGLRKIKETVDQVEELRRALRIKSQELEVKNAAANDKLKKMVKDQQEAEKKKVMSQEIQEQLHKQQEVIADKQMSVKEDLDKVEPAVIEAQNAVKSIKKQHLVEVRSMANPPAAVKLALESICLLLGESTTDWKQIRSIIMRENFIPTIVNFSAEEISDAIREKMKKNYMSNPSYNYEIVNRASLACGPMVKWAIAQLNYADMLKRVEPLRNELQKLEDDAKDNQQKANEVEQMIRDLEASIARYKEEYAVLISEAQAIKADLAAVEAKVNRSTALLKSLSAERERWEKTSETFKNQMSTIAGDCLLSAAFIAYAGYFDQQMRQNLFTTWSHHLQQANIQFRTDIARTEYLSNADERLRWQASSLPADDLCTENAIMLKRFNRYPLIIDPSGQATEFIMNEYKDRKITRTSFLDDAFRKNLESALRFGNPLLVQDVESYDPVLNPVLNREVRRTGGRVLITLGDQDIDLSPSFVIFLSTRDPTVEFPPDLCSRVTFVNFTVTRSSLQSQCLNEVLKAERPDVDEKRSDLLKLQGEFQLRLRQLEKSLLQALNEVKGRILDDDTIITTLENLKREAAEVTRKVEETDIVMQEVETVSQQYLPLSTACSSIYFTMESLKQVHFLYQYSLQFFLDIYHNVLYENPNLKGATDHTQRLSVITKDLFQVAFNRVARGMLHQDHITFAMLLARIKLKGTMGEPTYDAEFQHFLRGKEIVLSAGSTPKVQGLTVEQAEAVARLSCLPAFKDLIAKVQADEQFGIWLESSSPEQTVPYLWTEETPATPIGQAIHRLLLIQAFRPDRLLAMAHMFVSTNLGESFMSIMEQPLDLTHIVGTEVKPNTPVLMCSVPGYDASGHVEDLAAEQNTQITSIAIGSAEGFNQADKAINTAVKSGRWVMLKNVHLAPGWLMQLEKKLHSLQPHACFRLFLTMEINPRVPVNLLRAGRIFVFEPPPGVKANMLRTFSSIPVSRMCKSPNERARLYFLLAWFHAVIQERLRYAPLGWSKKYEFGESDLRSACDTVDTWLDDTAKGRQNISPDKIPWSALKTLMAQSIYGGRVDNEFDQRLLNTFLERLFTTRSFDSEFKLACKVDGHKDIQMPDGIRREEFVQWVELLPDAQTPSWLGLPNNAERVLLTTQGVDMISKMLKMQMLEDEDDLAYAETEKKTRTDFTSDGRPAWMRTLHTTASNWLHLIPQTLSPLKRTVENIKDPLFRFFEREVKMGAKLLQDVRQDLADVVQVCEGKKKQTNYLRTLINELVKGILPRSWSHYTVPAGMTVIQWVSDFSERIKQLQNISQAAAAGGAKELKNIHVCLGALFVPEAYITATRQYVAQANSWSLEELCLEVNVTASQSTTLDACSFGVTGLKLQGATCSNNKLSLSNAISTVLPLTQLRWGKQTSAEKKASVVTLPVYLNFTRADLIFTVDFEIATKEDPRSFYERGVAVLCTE

Row | GI50 (MDA-MB-231) | GI50 (HT-29) | GI50 (PC-3) | GI50 (L1210) | IC50 [1] | SMILES | GI50 2008
1 | 48 µM | 30 µM | 39 µM | 9.9 µM | – | COc1ccc(CCNC(=O)/C(Cc2ccc(OCCCN)c(Br)c2)=N\O)cc1 | 31 µM
2 | 8.8 µM | 4.9 µM | 35 µM | 6.2 µM | – | COc1ccc(CCNC(=O)/C(Cc2cc(Br)cc(Br)c2OCCCN)=N\O)cc1 | 25 µM
3 | 5.3 µM | 6 µM | 5 µM | 5.8 µM | > 50 µM | NCCCOc1c(Cl)cc(Cl)cc1C/C(=N/O)C(=O)NCCc1c[nH]c2ccccc12 | 5.7 µM
4 | 7.6 µM | 5.6 µM | 31 µM | 7.5 µM | – | NCCCOc1c(Cl)cc(Cl)cc1C/C(=N/O)C(=O)NCCc1ccccc1 | 8.8 µM
5 | 26 µM | 27 µM | 33 µM | 6.5 µM | > 50 µM | NCCCOc1ccc(C/C(=N/O)C(=O)NCCc2ccc(Cl)cc2)cc1Br | 27 µM
6 | 5.6 µM | 5.3 µM | 15 µM | 6.3 µM | > 50 µM | NCCCOc1c(Br)cc(Br)cc1C/C(=N/O)C(=O)NCCc1ccc(Cl)cc1 | 5.6 µM
7 | 24 µM | 6.2 µM | 32 µM | 6.9 µM | – | COc1ccc(CCNC(=O)/C(Cc2cc(Cl)cc(Cl)c2OCCCN)=N\O)cc1 | 29 µM
8 | > 50 µM | 27 µM | 31 µM | 6.2 µM | – | NCCCOc1ccc(C/C(=N/O)C(=O)NCCc2ccccc2)cc1Br | 30 µM
9 | 24 µM | 26 µM | 26 µM | 5.8 µM | – | NCCCOc1c(Br)cc(C/C(=N/O)C(=O)NCCc2c[nH]c3ccccc23)cc1Br | 27 µM
10 | 5.2 µM | 5.5 µM | 7.8 µM | 5.9 µM | – | NCCCOc1c(Cl)cc(Cl)cc1C/C(=N/O)C(=O)NCCc1ccc(Cl)cc1 | 5.4 µM
11 | 6.7 µM | 6 µM | 31 µM | 5.4 µM | > 50 µM | NCCCOc1c(Br)cc(Br)cc1C/C(=N/O)C(=O)NCCc1c[nH]c2ccccc12 | 7.5 µM
12 | 27 µM | 31 µM | 31 µM | 6.4 µM | – | NCCCOc1c(Br)cc(C/C(=N/O)C(=O)NCCc2ccccc2)cc1Br | 29 µM
13 | 5.7 µM | 5.3 µM | 19 µM | 6.3 µM | – | NCCCOc1c(Br)cc(Br)cc1C/C(=N/O)C(=O)NCCc1ccccc1 | 19 µM
14 | 25 µM | 30 µM | 32 µM | 7.6 µM | > 50 µM | NCCCOc1ccc(C/C(=N/O)C(=O)NCCc2c[nH]c3ccccc23)cc1Br | 26 µM
15 | 17 µM | 20 µM | 21 µM | 2.8 µM | – | COc1ccc(CCNC(=O)/C(Cc2cc(Br)c(OCCCN)c(Br)c2)=N\O)cc1 | 24 µM
16 | 27 µM | 31 µM | 30 µM | 7.8 µM | – | NCCCOc1c(Br)cc(C/C(=N/O)C(=O)NCCc2ccc(Cl)cc2)cc1Br | 29 µM
17 | 28 µM | 29 µM | 30 µM | 9 µM | > 50 µM | CCCCCCCCCCCCCC(=O)NCCCOc1c(Br)cc(C/C(=N/O)C(=O)NCCc2c[nH]c(N)n2)cc1Br [LIPOPUREALIN A] | 28 µM
18 | 28 µM | 30 µM | 25 µM | 12 µM | – | CC(C)CCCCCCCCCCCC(=O)NCCCOc1c(Br)cc(C/C(=N/O)C(=O)NCCc2c[nH]c(N)n2)cc1Br [LIPOPUREALIN B] | 29 µM
19 | 7 µM | 20 µM | 32 µM | 9.7 µM | – | CCCCCCCCCCCCCCCC(=O)NCCCOc1c(Br)cc(C/C(=N/O)C(=O)NCCc2c[nH]c(N)n2)cc1Br [LIPOPUREALIN C] | 5.7 µM
20 | > 50 µM | > 50 µM | > 50 µM | 4.7 µM | 42 µM | NCCCOc1c(Br)cc(C/C(=N/O)C(=O)NCCc2c[nH]c(N)n2)cc1Br [PUREALIDIN A] | > 50 µM
21 | > 50 µM | > 50 µM | > 50 µM | 3.2 µM | 35 µM | COC1=C(Br)[C@@H](O)[C@]2(C=C1Br)CC(C(=O)NCCCOc1c(Br)cc(C/C(=N/O)C(=O)NCCc3c[nH]c(N)n3)cc1Br)=NO2 [PUREALIN] | > 50 µM

Row | SMILES | GI50 (MDA-MB-231) | GI50 (HT-29) | GI50 (PC-3) | GI50 (L1210) | IC50 [1] | GI50 2008
22 | C=C/C=C\[C@H](C)[C@H](OC(N)=O)[C@@H](C)[C@H](O)[C@@H](C)C/C(C)=C\[C@H](C)[C@@H](O)[C@@H](C)/C=C\[C@@H](O)C[C@@H]1OC(=O)[C@H](C)[C@@H](O)[C@H]1C [DISERMOLIDE] | 0.04 µM | 0.028 µM | 0.052 µM | 0.0092 µM | – | 0.0027 µM
